Here are results for 8 compounds from BindingDB's records for patent US10245267 (Novartis, 2019).

Broadly, the IC50 is the point on the concentration scale where inhibition reaches its midpoint. Higher therefore signals a need for much substance.

SMILES strings stand for the structures.

Serine/threonine-protein kinase B-raf [V600E], sequence (P15056 2-766 V600E limits assumed): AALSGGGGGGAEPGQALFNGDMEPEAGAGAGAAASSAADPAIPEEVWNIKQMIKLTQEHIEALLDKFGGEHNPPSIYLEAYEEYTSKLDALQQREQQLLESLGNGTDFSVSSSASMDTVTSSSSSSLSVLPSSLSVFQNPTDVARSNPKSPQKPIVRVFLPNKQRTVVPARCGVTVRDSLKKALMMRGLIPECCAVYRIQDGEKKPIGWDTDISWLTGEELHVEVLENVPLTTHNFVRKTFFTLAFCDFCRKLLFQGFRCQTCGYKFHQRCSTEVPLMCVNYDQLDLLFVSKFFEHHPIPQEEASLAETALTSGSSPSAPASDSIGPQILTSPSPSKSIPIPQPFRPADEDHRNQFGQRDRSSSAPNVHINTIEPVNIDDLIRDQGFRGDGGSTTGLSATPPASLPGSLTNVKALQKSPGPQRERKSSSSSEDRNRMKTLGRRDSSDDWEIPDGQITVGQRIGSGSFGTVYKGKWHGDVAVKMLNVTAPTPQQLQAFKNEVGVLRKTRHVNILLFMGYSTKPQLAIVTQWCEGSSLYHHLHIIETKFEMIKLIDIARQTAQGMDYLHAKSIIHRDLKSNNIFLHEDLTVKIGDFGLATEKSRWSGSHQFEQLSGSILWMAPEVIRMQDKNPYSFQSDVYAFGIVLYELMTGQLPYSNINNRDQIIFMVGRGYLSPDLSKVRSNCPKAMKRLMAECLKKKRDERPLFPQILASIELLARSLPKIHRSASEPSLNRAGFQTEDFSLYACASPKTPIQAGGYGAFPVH

The test concerns the target Serine/threonine-protein kinase B-raf [V600E] (Homo sapiens, UniProt P15056, V600E). Put plainly: In Vitro Raf Activity.
Procedure: The plate was incubated for 60 minutes at room temperature. […] The additions were carried out under dark conditions to protect the detection beads from light. A lid was placed on top of the plate and incubated for 1 hour at room temperature, then the luminescence was read on a PerkinElmer Envision instrument.
The compound `Cc1ncc(NC(=O)c2cccc(C(F)F)c2)cc1-c1cc(N2CCOCC2)c2nccn2n1` [US10245267, Example 880] yielded an IC50 of 3.2 nM.

`Cc1ncc(NC(=O)c2ccnc(C(C)(C)C#N)c2)cc1-c1cc(N2CCOCC2)ncn1` [US10245267, Example 2] showed an IC50 of 4.8 nM.

`Cc1ncc(NC(=O)c2ccnc(C(F)(F)F)c2)cc1-c1cnc(OC2CNC2)c(N2CCOCC2)c1` [US10245267, Example 325] returned an IC50 of 300 nM.

In the case of `CCOc1nnc(-c2cc(NC(=O)c3ccc(CN(C)CC)c(C(F)(F)F)c3)ccc2C)cc1N1CCOCC1` [US10245267, Example 576], the IC50 stood at 3.5 nM.

With `Cc1ncc(NC(=O)c2ccnc(C(F)(F)F)c2)cc1-c1cnc(C(C)(C)C#N)c(N2CCOCC2)c1` [US10245267, Example 326], inhibition was half-maximal at 3.7 nM (IC50).

Compound `Cc1ncc(NC(=O)c2ccnc(C(F)(F)F)c2)cc1-c1cnc(CS(C)(=O)=O)c(N2CCOCC2)c1` [US10245267, Example 327] registered a 50% inhibitory concentration (IC50) of 3.9 nM.

On to `Cc1ncc(NC(=O)c2ccnc(C(C)(C)C#N)c2)cc1-c1cc(N2CCOCC2)c2nccn2n1` [US10245267, Example 881], for which the IC50 stood at 32.6 nM.

The compound `Cc1ncc(NC(=O)c2ccc(C#N)c(C(F)(F)F)c2)cc1-c1cc(N2CCOCC2)c2nccn2n1` [US10245267, Example 877] came in with an IC50 of 6.5 nM.
